The subject of test [1] is A/Wisconsin/67/2005 (H3N2). Kind of test: microbe, parasite or virus in culture. The format is cell-based, influenza A/H3N2 virus.
Test [2] concerns Day 0 wild-type isolate (A/Bethesda/NIH12-0/2008). The test can be described thus: microbe, parasite or virus in culture. The format is cell-based, influenza A/H3N2 virus.
The test system of test [3] is Day 8 isolate (deletion in NA of AA 245–248). The format is cell-based, influenza A/H3N2 virus. The following applies: read-out: High Throughput Assay EC50 (95% CI).
For test [4] the test system is unchanged. The format is cell-based, influenza A/H3N2 virus. The following applies: for IC50: read-out: Plaque Reduction Assay IC50 (95% CI). (Plaques are areas of infected cells; plaque reduction assays count them against a control.)
The subject of test [5] is Day 0 wild-type isolate (A/Bethesda/NIH12-0/2008). Type of test: cell-based, influenza A/H3N2 virus. The following applies: read-out: Plaque Reduction Assay IC50 (95% CI).
The target in test [6] is NA of Day 8 isolate (deletion in NA of AA 245–248) (Influenza A virus, UniProt D3XBZ2, DEL245-248). The test can be described thus: biochemical. Type of test: biochemical, influenza A/H3N2 virus.
For test [7], the target named is NA of Day 0 wild-type isolate (A/Bethesda/NIH12-0/2008) (Influenza A virus, UniProt D3XBZ2). The format is biochemical, influenza A/H3N2 virus. The note with it: read-out: NA-inhibition Assay IC50 (95% CI).
Where [8] appears, read: read-out: High Throughput Assay EC50 (95% CI).

The EC50 is the midpoint of the concentration-response curve. By IC50 is commonly meant the concentration needed to halve the response being measured.

Where two headings read alike, the source gives them in different places.

For `NC12CC3CC(CC(C3)C1)C2` [Amantadine, amantadine], the EC50 in test [1] (Influenza A virus, H3N2, read-out: High Throughput Assay EC50) was above 200000 nM; in test [2] (Influenza A virus, in Homo sapiens, 0 h, read-out: High Throughput Assay EC50) it was above 200000 nM.

As to `CCOC(=O)C1=C[C@@H](OC(CC)CC)[C@H](NC(C)=O)[C@@H](N)C1` [Oseltamivir, oseltamivir], the results for the EC50 in test [1] (setting [8]), in test [3] and in test [2] (setting [8]) were 0.37 nM, 443 nM and 0.21 nM, respectively. Also, the IC50 in test [4] turned out to be 49.7 nM; in test [5] it was 0.38 nM.

`CC(=O)N[C@H]1[C@H]([C@H](O)[C@H](O)CO)OC(C(=O)O)=C[C@@H]1N=C(N)N` [Zanamivir, zanamivir]: the IC50 in test [6] is 12.7 nM; in test [7], 4 nM; in test [4], 224 nM; in test [5], 15.6 nM. Further, the “fold increase in IC50, NA activity assay” value in test [6] stood at 3 fold. In addition, in test [6], the “fold increase in IC50 / IC50/EC50, summary over drug sensitivity assays” value was 3 to 7 fold. Moreover, the EC50 came out at 6.16 nM in test [1] (setting [8]), 131 nM in test [3] and 18.9 nM in test [2] (setting [8]). Also, the “fold increase in IC50, plaque reduction assay” value in test [4] came out at 14 fold.

Source of the values: paper PMC2851491 (The Journal of infectious diseases, 2010).
